Key:
[1] = tested on: M1 macrophages and M2 macrophages differentiated from mouse bone marrow cells; test: Subtype identification by staining and flow cytometry of M1 and M2 macrophages differentiated from mouse bone marrow cells; format: cell-based, Balb/c mouse; settings: for difference in the staining intensity between the M1 macrophages and the M2 macrophages / identification: mouse bone marrow derived; for Selectivity: subtype strongly stained
How it was run: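 Balb/c mouse bone marrow cells were differentiated to macrophages with 50 ng/mL M-CSF over two 3–4-day periods, then polarized for 3 days to M1 (interferon-γ plus polyliposaccharide) or M2 (IL-4). Live cells (aqua dye-negative) were analysed by flow cytometry; resolution R = |FM1−FM2|/(WM1+WM2) from histogram peak positions and widths indexed subtype discrimination.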

[2] = tested on: M1 macrophages and M2 macrophages differentiated from THP-1 cells; test: Identification of macrophage subtypes differentiated from human cell line THP-1; format: cell-based; settings: for Resolution ratio R / Evaluation of macrophage subtype identification: M1 vs M2 macrophages differentiated from THP-1 cells; for Resolution ratio R: channel listed per compound (Table 6); for Evaluation of macrophage subtype identification: class based on resolution R (Table 6); for Peak position of M1 macrophage: THP-1-derived M1 macrophages; for Peak position of M1 macrophage / Peak position of M2 macrophage: fluorescence intensity peak by flow cytometry in the channel listed per compound (Table 6); for Peak position of M2 macrophage: THP-1-derived M2 macrophages; for Selectivity: subtype strongly stained, THP-1-derived macrophages (Table 6); for difference in the staining intensity between the M1 macrophages and the M2 macrophages / identification: THP-1 derived
Experimental: The fluorescent signals derived from the compounds (3), (4), (6), (7), (9), (11) to (13), (15), (17), (19) to (26), (28), (30) to (33), (35), (36), (38), (42) to (45), (48) to (62), (65), (67), (74) to (76), (82), (83) and (85) and the comparative compounds (1) and (2) were measured in channels suitable to the respective compounds. Histograms were prepared by plotting fluorescence intensities obtained in the respective channels on the abscissa and plotting the numbers of cells at each fluorescence intensity on the ordinate. A difference between a fluorescence intensity (FM1) at a peak top of the histogram of the M1 macrophage and a fluorescence intensity (FM2) at a peak top of the histogram of the M2 macrophage is divided by a sum of a peak width (WM1) of the histogram of the M1 macrophage and a peak width (WM2) of the histogram of the M2 macrophage, so as to obtain a resolution R, which was used as an index of the identification ability for a subtype (see the following expression (1)). Resolution R=|FM1−FM2|/(WM1+WM2) Expression (1)
Based on the thus obtained values of the resolution R, the identification abilities for the subtypes of the compounds (3), (4), (6), (7), (9), (11) to (13), (15), (17), (19) to (26), (28), (30) to (33), (35), (36), (38), (42) to (45), (48) to (62), (65), (67), (74) to (76), (82), (83) and (85) and the comparative compounds (1) and (2) were evaluated as any of A to C according to the following criteria, and if the resolution R was 0.15 or more, the compound was determined to be good in the subtype identification.
The subtypes were identified by using the compound (1) in the same manner as in Example 1 except that the macrophage subtypes differentiated from the mouse bone marrow cells were changed to macrophage subtypes differentiated from a cell line established from human acute monocytic leukemia.
The culture of subtypes was performed with reference to NPL 10. Specifically, THP-1 cells purchased from JCRB Cell Bank of National Institute of Biomedical Innovation, that is, a cell line established from human acute monocytic leukemia, were subcultured several times, and the resultant cells were dispersed to a concentration of 5.0×10^5/mL in an RPMI1640 containing 10% FBS and 1% P/S, and 5.0×10^6 cells were seeded in a 100 mm dish. The monocytes were differentiated into macrophages by incubating the resultant in the presence of 5% CO2 at 37° C. for 2 days with 500 ng of PMA added thereto. After exchanging the medium, by adding 200 ng of interferon-γ and 1 μg of polyliposaccharide (both manufactured by Pepro Tech) to the medium, the cells were differentiated to the subtype M1. Besides, by adding 200 ng of IL-4 and IL-13, the cells were differentiated to the subtype M2. After incubation performed in the presence of 5% CO2 at 37° C. for 24 hours, the resultant was rinsed with PBS, and PBS containing 0.25% trypsin and 1 mM EDTA (ethylenediaminetetraacetic acid) was used for collecting, from the dish, the macrophages having been differentiated to the subtypes M1 and M2.
Specifically, fluorescent signals derived from the compounds (1) (3) (4) (12) and (15) were measured by using the channels which are appropriate for each of the compounds and the identification abilities for the subtypes of the compounds were evaluated based on the values of the resolution R.

[3] = tested on: mixture of the M1 macrophages and the M2 macrophages; test: Sorting of subtypes from a mixture of M1 and M2 macrophages with an FACS apparatus; format: cell-based, mouse; settings: compound 1 μM; for sorting of identified M1 and M2 macrophages: FACS apparatus; for subtype more strongly stained: mixed M1 and M2 macrophages
[4] = R=|FM1−FM2|/(WM1+WM2), compound 1 μM
[5] = fluorescence intensity at peak top of histogram, compound 1 μM, 37° C., 30 minutes
[6] = M1 vs M2 macrophages from mouse bone marrow cells, general formula (6) dyes (Table 7)
[7] = M1 vs M2 macrophages from mouse bone marrow cells, general formula (10) dyes (Table 8)
[8] = class based on resolution R, general formula (6) dyes (Table 7)
[9] = class based on resolution R, general formula (10) dyes (Table 8)
[10] = mouse bone marrow-derived M1 macrophages, channel listed per compound, general formula (6) dyes (Table 7)
[11] = mouse bone marrow-derived M1 macrophages, channel listed per compound, general formula (10) dyes (Table 8)
[12] = mouse bone marrow-derived M2 macrophages, channel listed per compound, general formula (6) dyes (Table 7)
[13] = mouse bone marrow-derived M2 macrophages, channel listed per compound, general formula (10) dyes (Table 8)

SMILES	Resolution ratio R [1, 4]	Peak position of M1 macrophage [1, 5]	Peak position of M2 macrophage [1, 5]	Evaluation of macrophage subtype identification ([1]; rated from resolution R)	Resolution ratio R [2]	Evaluation of macrophage subtype identification [2]	Peak position of M1 macrophage [2]	Peak position of M2 macrophage [2]	Selectivity [2]	other results
COC(=O)CCC(C(=O)OC)N1C(=O)/C(=C\c2ccc3c(c2)C2CCCC2N3c2ccc(OC)cc2)SC1=S (stereo not shown) [compound (4)]	1.125	158	45.4	A (The compound is very good in the subtype identification (namely, the resolution R is 0.5 or more))	0.372	B (the compound is good in the subtype identification (namely, the resolution R is 0.15 or more and less than 0.5))	26.5	17.9	M1	
CCC1=C(CC)c2cc3[nH]c(cc4nc(cc5[nH]c(cc1n2)c(CC)c5CC)C(CC)=C4CC)c(CC)c3CC [(1), reference compound]	0.006	1.70	1.86	C (the compound cannot identify the subtypes (namely, the resolution R is less than 0.15))						Resolution ratio R [1, 6]: 0.006; Resolution ratio R [1, 7]: 0.006; Resolution ratio R ([1]; M1 vs M2 macrophages from mouse bone marrow cells, general formula (11) dyes (Table 9)): 0.006; Evaluation of macrophage subtype identification [1, 8]: C (the compound cannot identify the subtypes (namely, the resolution R is less than 0.15)); Evaluation of macrophage subtype identification [1, 9]: C (the compound cannot identify the subtypes (namely, the resolution R is less than 0.15)); Evaluation of macrophage subtype identification ([1]; class based on resolution R, general formula (11) dyes (Table 9)): C (the compound cannot identify the subtypes (namely, the resolution R is less than 0.15)); difference in the staining intensity between the M1 macrophages and the M2 macrophages / identification [1]: no difference in the staining intensity; Peak position of M1 macrophage [1, 10]: 1.70; Peak position of M1 macrophage [1, 11]: 1.70; Peak position of M1 macrophage ([1]; mouse bone marrow-derived M1 macrophages, channel listed per compound, general formula (11) dyes (Table 9)): 1.70; Peak position of M2 macrophage [1, 12]: 1.86; Peak position of M2 macrophage [1, 13]: 1.86; Peak position of M2 macrophage ([1]; mouse bone marrow-derived M2 macrophages, channel listed per compound, general formula (11) dyes (Table 9)): 1.86; Selectivity ([1]; general formula (6) dyes (Table 7)): No; Selectivity ([1]; general formula (10) dyes (Table 8)): No; difference in the staining intensity between the M1 macrophages and the M2 macrophages / identification [2]: no difference in the staining intensity
CCN(CC)c1ccc2cc(-c3nc4cc(Cl)ccc4o3)c(=O)oc2c1 [compound (120)]										Resolution ratio R [1, 7]: 0.676; Evaluation of macrophage subtype identification [1, 9]: A (The compound is very good in the subtype identification (namely, the resolution R is 0.5 or more)); Peak position of M1 macrophage [1, 11]: 10.1; Peak position of M2 macrophage [1, 13]: 5.60; subtype more strongly stained ([1]; two compounds used in combination, each 1 μM): more strongly stain the M1 macrophages than the M2 macrophages; subtype more strongly stained ([2]; THP-1 derived M1 and M2): the M1 macrophages were stained more strongly by the compound (120) than the M2 macrophages; sorting of identified M1 and M2 macrophages [3]: could be each sorted with an FACS apparatus; subtype more strongly stained [3]: stain the M1 macrophages more strongly than the M2 macrophages
CCN1c2ccc(/C=C3/SC(=S)N(CCC(=O)O)C3=O)cc2C2CCCC21 (stereo not shown) [(15)]	0.700	7.52	10.5	A (The compound is very good in the subtype identification (namely, the resolution R is 0.5 or more))	0.216	B (the compound is good in the subtype identification (namely, the resolution R is 0.15 or more and less than 0.5))	5.62	7.4	M2	
COc1ccc(N2c3ccc(/C=C4\C(=O)NC(=O)C(C#N)=C4C)cc3C3CCCC32)cc1 (stereo not shown) [(2), reference compound]	0.007	0.86	1.05	C (the compound cannot identify the subtypes (namely, the resolution R is less than 0.15))						difference in the staining intensity between the M1 macrophages and the M2 macrophages / identification [1]: no difference in the staining intensity; difference in the staining intensity between the M1 macrophages and the M2 macrophages / identification [2]: no difference in the staining intensity
O=C(O)CCN1C(=O)/C(=C\c2ccc3c(c2)C2CCCC2N3Cc2ccccc2)SC1=S (stereo not shown) [compound (3)]	0.622	11.2	25.0	A (The compound is very good in the subtype identification (namely, the resolution R is 0.5 or more))	0.257	B (the compound is good in the subtype identification (namely, the resolution R is 0.15 or more and less than 0.5))	9.63	12.3	M2	
CC1(C)C(/C=C/C=C/C=C/C=C2\N(CCCCS(=O)(=O)[O-])c3ccc4ccccc4c3C2(C)C)=[N+](CCCCS(=O)(=O)[O-])c2ccc3ccccc3c21.[Na+] [compound (86)]										Resolution ratio R [1, 6]: 0.602; Evaluation of macrophage subtype identification [1, 8]: A (The compound is very good in the subtype identification (namely, the resolution R is 0.5 or more)); Peak position of M1 macrophage [1, 10]: 2.27; Peak position of M2 macrophage [1, 12]: 6.37; sorting of identified M1 and M2 macrophages [3]: could be each sorted with an FACS apparatus; subtype more strongly stained [3]: stain the M2 macrophages more strongly than the M1 macrophages
O=C(O)CN1C(=O)/C(=C\c2cc(Br)c3c(c2)C2CCCC2N3c2ccc(Br)cc2)SC1=S (stereo not shown) [(12)]	0.594	50.7	97.7	A (The compound is very good in the subtype identification (namely, the resolution R is 0.5 or more))	0.276	B (the compound is good in the subtype identification (namely, the resolution R is 0.15 or more and less than 0.5))	37.4	46.5	M2	
